The values below come from patent US11759456B2, “Pharmaceutical composition” (KOWA COMPANY, LTD., priority 2017, dated 2023).

The nature of this data set: Laser Diffraction Measurement of Particle Size of primary particles. It counts as physicochemical. The following applies: pemafibrate used in Test Examples; Japanese Pharmacopoeia 17th Edition laser diffraction.

Consider `CC[C@@H](Oc1cccc(CN(CCCOc2ccc(OC)cc2)c2nc3ccccc3o2)c1)C(=O)O` [pemafibrate, (2R)-2-[3-([1,3-Benzoxazol-2-yl[3-(4-methoxyphenoxy)propyl]amino]methyl)phenoxy]butanoic acid], for which the “d50 value (average particle diameter of primary particles)” value is given as at most 100 μm and the “d90 value (average particle diameter of primary particles)” value is listed as at most 200 μm.
